From PubChem BioAssay AID1963834 (Molecular Pharmacology Branch, DTP, NCI, 2024)

System: 873145-292-R-J1-PDC complex spheroid viability
Test: Anticancer human tumor 873145-292-R-J1-PDC patient-derived renal clear cell carcinoma cell line growth inhibition [POLQ]
Conditions: for IC50: curve of first compound; for viability, T/C: stronger effect = lower value
Method in brief: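 Patient-derived tumour cells were co-cultured with HUVEC and mesenchymal stem cells as multicellular spheroids at 37 °C. They were treated with POLQ inhibitors (novobiocin, ART-558, RP6685) alone or combined with other agents. Top concentrations were at or near clinical Cmax (otherwise 10 microM; SN-38 at 1 microM), decreasing in half-log steps.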

[1] = second compound 0.0316 µM, first compound 0.0316 µM
[2] = second compound 0.0316 µM, first compound 0.1 µM
[3] = second compound 0.0316 µM, first compound 0.316 µM
[4] = second compound 0.0316 µM, first compound 1 µM
[5] = second compound 0.0316 µM, first compound 3.16 µM
[6] = second compound 0.0316 µM, first compound 10 µM
[7] = second compound 0.1 µM, first compound 0.0316 µM
[8] = second compound 0.1 µM, first compound 0.1 µM
[9] = second compound 0.1 µM, first compound 0.316 µM
[10] = second compound 0.1 µM, first compound 1 µM
[11] = second compound 0.1 µM, first compound 3.16 µM
[12] = second compound 0.1 µM, first compound 10 µM
[13] = second compound 0.316 µM, first compound 0.0316 µM
[14] = second compound 0.316 µM, first compound 0.1 µM
[15] = second compound 0.316 µM, first compound 0.316 µM
[16] = second compound 0.316 µM, first compound 1 µM
[17] = second compound 0.316 µM, first compound 3.16 µM
[18] = second compound 0.316 µM, first compound 10 µM
[19] = second compound 1 µM, first compound 0.0316 µM
[20] = second compound 1 µM, first compound 0.1 µM
[21] = second compound 1 µM, first compound 0.316 µM
[22] = second compound 1 µM, first compound 1 µM
[23] = second compound 1 µM, first compound 3.16 µM
[24] = second compound 1 µM, first compound 10 µM
[25] = second compound 3.16 µM, first compound 0.0316 µM
[26] = second compound 3.16 µM, first compound 0.1 µM
[27] = second compound 3.16 µM, first compound 0.316 µM
[28] = second compound 3.16 µM, first compound 1 µM
[29] = second compound 3.16 µM, first compound 3.16 µM
[30] = second compound 3.16 µM, first compound 10 µM
[31] = second compound 10 µM, first compound 0.0316 µM
[32] = second compound 10 µM, first compound 0.1 µM
[33] = second compound 10 µM, first compound 0.316 µM
[34] = second compound 10 µM, first compound 1 µM
[35] = second compound 10 µM, first compound 3.16 µM
[36] = second compound 10 µM, first compound 10 µM
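Also: spheroids exposed to compounds for 7 days before viability readout.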
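For viability, T/C in this document: luminescence signal used as surrogate for viable cell content; 100% = DMSO vehicle control viability.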

C#Cc1c(F)ccc2cc(O)cc(-c3ncc4c(N5CC6CCC(C5)N6)nc(OCC56CCCN5CC(F)C6)nc4c3F)c12 (stereo not given) + Cc1cccc(N(C)C(=O)C2C(O)CCN2c2nc(C)cc(C(F)(F)F)c2C#N)c1
IC50 (second compound 0.0316 µM): > 10 µM
IC50 (second compound 0.1 µM): > 10 µM
IC50 (second compound 0.316 µM): > 10 µM
IC50 (second compound 1 µM): > 10 µM
IC50 (second compound 3.16 µM): > 10 µM
IC50 (second compound 10 µM): > 10 µM
viability, T/C [1]: 94.5%
viability, T/C [2]: 112%
viability, T/C [3]: 88%
viability, T/C [4]: 91%
viability, T/C [5]: 98%
viability, T/C [6]: 88.8%
viability, T/C [7]: 103%
viability, T/C [8]: 97.4%
viability, T/C [9]: 89.5%
viability, T/C [10]: 89%
viability, T/C [11]: 102%
viability, T/C [12]: 92.1%
viability, T/C [13]: 96%
viability, T/C [14]: 94.6%
viability, T/C [15]: 107%
viability, T/C [16]: 92.1%
viability, T/C [17]: 87.3%
viability, T/C [18]: 90.7%
viability, T/C [19]: 99.8%
viability, T/C [20]: 89.2%
viability, T/C [21]: 91.2%
viability, T/C [22]: 93.7%
viability, T/C [23]: 95.1%
viability, T/C [24]: 88.8%
viability, T/C [25]: 87.1%
viability, T/C [26]: 84.5%
viability, T/C [27]: 89.6%
viability, T/C [28]: 95.9%
viability, T/C [29]: 85.1%
viability, T/C [30]: 89.6%
viability, T/C [31]: 86.5%
viability, T/C [32]: 95.8%
viability, T/C [33]: 95.8%
viability, T/C [34]: 94.4%
viability, T/C [35]: 82.5%
viability, T/C [36]: 86.9%

C=CC(=O)N1CCN(c2nc(=O)n(-c3c(C)ccnc3C(C)C)c3nc(-c4c(O)cccc4F)c(F)cc23)C(C)C1 (stereo not given) + Cc1cccc(N(C)C(=O)C2C(O)CCN2c2nc(C)cc(C(F)(F)F)c2C#N)c1
IC50 (second compound 0.0316 µM): > 10 µM
IC50 (second compound 0.1 µM): > 10 µM
IC50 (second compound 0.316 µM): > 10 µM
IC50 (second compound 1 µM): > 10 µM
IC50 (second compound 3.16 µM): > 10 µM
IC50 (second compound 10 µM): > 10 µM
viability, T/C [1]: 103%
viability, T/C [2]: 108%
viability, T/C [3]: 107%
viability, T/C [4]: 120%
viability, T/C [5]: 141%
viability, T/C [6]: 138%
viability, T/C [7]: 104%
viability, T/C [8]: 110%
viability, T/C [9]: 115%
viability, T/C [10]: 133%
viability, T/C [11]: 128%
viability, T/C [12]: 126%
viability, T/C [13]: 108%
viability, T/C [14]: 111%
viability, T/C [15]: 119%
viability, T/C [16]: 123%
viability, T/C [17]: 143%
viability, T/C [18]: 125%
viability, T/C [19]: 114%
viability, T/C [20]: 100%
viability, T/C [21]: 111%
viability, T/C [22]: 123%
viability, T/C [23]: 144%
viability, T/C [24]: 117%
viability, T/C [25]: 105%
viability, T/C [26]: 110%
viability, T/C [27]: 106%
viability, T/C [28]: 111%
viability, T/C [29]: 136%
viability, T/C [30]: 124%
viability, T/C [31]: 110%
viability, T/C [32]: 101%
viability, T/C [33]: 103%
viability, T/C [34]: 111%
viability, T/C [35]: 120%
viability, T/C [36]: 128%

CCc1cc2c(N3CCc4c(cc(Cn5ccnc5)cc4-c4cn(C)nc4C(F)(F)F)C3=O)cc(C)nc2c(OC)n1 + Cc1cccc(N(C)C(=O)C2C(O)CCN2c2nc(C)cc(C(F)(F)F)c2C#N)c1
IC50 (second compound 0.0316 µM): > 10 µM
IC50 (second compound 0.1 µM): > 10 µM
IC50 (second compound 0.316 µM): > 10 µM
IC50 (second compound 1 µM): > 10 µM
IC50 (second compound 3.16 µM): > 10 µM
IC50 (second compound 10 µM): > 10 µM
viability, T/C [1]: 99.1%
viability, T/C [2]: 99.8%
viability, T/C [3]: 102%
viability, T/C [4]: 77.3%
viability, T/C [5]: 105%
viability, T/C [6]: 83.2%
viability, T/C [7]: 97.1%
viability, T/C [8]: 99.8%
viability, T/C [9]: 80.5%
viability, T/C [10]: 90.5%
viability, T/C [11]: 93.9%
viability, T/C [12]: 89.8%
viability, T/C [13]: 97.4%
viability, T/C [14]: 102%
viability, T/C [15]: 76.1%
viability, T/C [16]: 97.5%
viability, T/C [17]: 84.2%
viability, T/C [18]: 87.4%
viability, T/C [19]: 93%
viability, T/C [20]: 86.5%
viability, T/C [21]: 91.4%
viability, T/C [22]: 79.4%
viability, T/C [23]: 102%
viability, T/C [24]: 70.2%
viability, T/C [25]: 90.7%
viability, T/C [26]: 87.4%
viability, T/C [27]: 87.5%
viability, T/C [28]: 96.7%
viability, T/C [29]: 77.2%
viability, T/C [30]: 89.6%
viability, T/C [31]: 89.1%
viability, T/C [32]: 102%
viability, T/C [33]: 93.1%
viability, T/C [34]: 88.5%
viability, T/C [35]: 76.7%
viability, T/C [36]: 81.6%

CCc1cc2c(N3CCc4c(cc(Cn5ccnc5)cc4-c4cn(C)nc4C(F)(F)F)C3=O)ccnc2c(OC)n1 + Cc1cccc(N(C)C(=O)C2C(O)CCN2c2nc(C)cc(C(F)(F)F)c2C#N)c1
IC50 (second compound 0.0316 µM): > 10 µM
IC50 (second compound 0.1 µM): > 10 µM
IC50 (second compound 0.316 µM): > 10 µM
IC50 (second compound 1 µM): > 10 µM
IC50 (second compound 3.16 µM): > 10 µM
IC50 (second compound 10 µM): > 10 µM
viability, T/C [1]: 92.1%
viability, T/C [2]: 114%
viability, T/C [3]: 100%
viability, T/C [4]: 94.6%
viability, T/C [5]: 88%
viability, T/C [6]: 83.2%
viability, T/C [7]: 99.6%
viability, T/C [8]: 118%
viability, T/C [9]: 88.9%
viability, T/C [10]: 95%
viability, T/C [11]: 91.6%
viability, T/C [12]: 78.4%
viability, T/C [13]: 105%
viability, T/C [14]: 101%
viability, T/C [15]: 82.2%
viability, T/C [16]: 94.6%
viability, T/C [17]: 94.6%
viability, T/C [18]: 83.7%
viability, T/C [19]: 90.5%
viability, T/C [20]: 87.3%
viability, T/C [21]: 91.7%
viability, T/C [22]: 93.4%
viability, T/C [23]: 89.7%
viability, T/C [24]: 78%
viability, T/C [25]: 88.2%
viability, T/C [26]: 104%
viability, T/C [27]: 85%
viability, T/C [28]: 91.3%
viability, T/C [29]: 80.1%
viability, T/C [30]: 90.1%
viability, T/C [31]: 90.1%
viability, T/C [32]: 97.3%
viability, T/C [33]: 85.3%
viability, T/C [34]: 84.5%
viability, T/C [35]: 81.2%
viability, T/C [36]: 90.3%

COc1cc2cc(C(=O)CCC(=O)O)sc2cc1OC + Cc1cccc(N(C)C(=O)C2C(O)CCN2c2nc(C)cc(C(F)(F)F)c2C#N)c1
IC50 (second compound 0.0316 µM): > 10 µM
IC50 (second compound 0.1 µM): > 10 µM
IC50 (second compound 0.316 µM): > 10 µM
IC50 (second compound 1 µM): > 10 µM
IC50 (second compound 3.16 µM): > 10 µM
IC50 (second compound 10 µM): > 10 µM
viability, T/C [1]: 103%
viability, T/C [2]: 106%
viability, T/C [3]: 111%
viability, T/C [4]: 105%
viability, T/C [5]: 101%
viability, T/C [6]: 104%
viability, T/C [7]: 97.9%
viability, T/C [8]: 115%
viability, T/C [9]: 96.9%
viability, T/C [10]: 92.1%
viability, T/C [11]: 98.8%
viability, T/C [12]: 107%
viability, T/C [13]: 98.3%
viability, T/C [14]: 110%
viability, T/C [15]: 95.1%
viability, T/C [16]: 96.1%
viability, T/C [17]: 93.5%
viability, T/C [18]: 97.6%
viability, T/C [19]: 101%
viability, T/C [20]: 98.7%
viability, T/C [21]: 94%
viability, T/C [22]: 100%
viability, T/C [23]: 95.6%
viability, T/C [24]: 103%
viability, T/C [25]: 89%
viability, T/C [26]: 117%
viability, T/C [27]: 102%
viability, T/C [28]: 99.4%
viability, T/C [29]: 98.4%
viability, T/C [30]: 101%
viability, T/C [31]: 98.2%
viability, T/C [32]: 95.9%
viability, T/C [33]: 102%
viability, T/C [34]: 97.7%
viability, T/C [35]: 104%
viability, T/C [36]: 103%
